What was measured:
[1] = test system: Human platelet aggregation; experiment: Human platelet aggregation inhibitory action (in vitro), U46619-induced; type: cell-based; settings: human PRP, approximately 4×10^5 cells/ml, 1 μM U46619, 37° C., Born's method, read-out: IC50 (concentration required for inhibiting the platelet aggregation induced by 1 μM of U46619 by 50%)
Method: Human platelet aggregation inhibitory action (in vitro):
Blood samples were collected from healthy humans. 9 parts by volume of the collected blood was mixed with 1 part by volume of an aqueous 3.8%(W/v) trisodium citrate, and the mixture was subjected to centrifugal separation for collecting the supernatant-to prepare a platelet rich plasma (PRP). A further centrifugation was-performed to separate a platelet poor plasma (PPP). PRP was diluted with PPP to adjust the number of platelets to approximately 4×10^5 cells/ml. Subsequently, 200 micro liters of PRP were added with the […] and 25 micro liters of an equimolar aqueous sodium hydrogencarbonate solution, and stirred for 2 minutes at 37° C. Thereafter, U46619 was added thereto for inducing platelet aggregation. The platelet aggregation was measured in accordance with a Born's method ("Nature", vol 194, page 927 (1962)), and inhibition against the platelet aggregation was examined. The platelet aggregation inhibitory action of the test compounds was expressed as the IC50 value (concentration required for inhibiting the platelet aggregation induced by 1 μM of U46619 by 50%).

[2] = test system: U46619 induced contraction in rat aorta; experiment: Inhibitory effect on U46619 induced contraction in rat aorta; type: cell-based, SD male rat; settings: relaxation of contraction by 10^-7 M U46619, rat thoracic aorta, 37° C., logit method
Method: Inhibitory effect on U46619 induced contraction in rat aorta:
The sample was kept at 37° C., bubbled with 95% oxygen gas containing 5% CO2, and suspended in a 10 ml organ bath filled with a Krebs-Henseleit solution at 2 g resting tension. 10^-7 M of U46619 which is a stable active substance of TXA2 was added portionwise. After the contraction responses were stabilized, the test compound was added to the organ bath, and its antagonism was evaluated. A concentration-relaxation curve was obtained, to which was applied a logit method to obtain pIC50 values.

IC50 [1] | IC50 [2] | SMILES
850 nM | – | O=C(O)c1ccc2c(c1)CC(CNS(=O)(=O)c1ccc(Cl)cc1)C2 (stereo not shown) [Example 33, [2-[(4-chlorophenyl)sulfonylaminomethyl]-indan-5-yl]carboxylic acid]
310 nM | – | O=C(O)COc1ccc2c(c1)CC(CNS(=O)(=O)c1ccc(Cl)cc1)C2 (stereo not shown) [Example 30, 2-[(4-chlorophenyl)sulfonylaminomethyl)indan-5-hydroxyacetic acid]
2530 nM | 427 nM | O=C(O)COc1ccc(CCNS(=O)(=O)c2ccccc2)cc1 [Control compound, 4-(2-phenylsulfonylaminoethyl)phenoxy acetic acid, reference compound]
2450 nM | 316 nM | O=C(O)Cc1ccc2c(c1)CC(CCNS(=O)(=O)c1ccccc1)C2 (stereo not shown) [Example 25, [2-(2-phenylsulfonylaminoethyl)indan-5-yl]acetic acid]
– | 31.6 nM | O=C(O)COc1ccc2c(c1)CC(CNS(=O)(=O)c1ccccc1)C2 (stereo not shown) [Example 29, 2-(phenylsulfonylaminomethyl)indan-5-hydroxyacetic acid]
600 nM | – | O=C(O)c1ccc2c(c1)CC(CCNS(=O)(=O)c1ccc(Cl)cc1)C2 (stereo not shown) [Example 34, [2-[2-(4-chlorophenyl)sulfonylaminoethyl)indan-5-yl]-carboxylic acid]
770 nM | 3.02 nM | O=C(O)Cc1ccc2c(c1)CC(CNS(=O)(=O)c1ccc(Cl)cc1)C2 (stereo not shown) [Example 24, [2-[(4-chlorophenyl)sulfonylaminomethyl)indan-5-yl]acetic acid]
720 nM | 12.9 nM | O=C(O)Cc1ccc2c(c1)CC(CNS(=O)(=O)c1ccccc1)C2 (stereo not shown) [Example 1, [2-(phenylsulfonylaminomethyl)indan-5-yl]acetic acid]
1120 nM | – | O=C(O)CCC(=O)c1ccc2c(c1)CC(CNS(=O)(=O)c1ccc(Cl)cc1)C2 (stereo not shown) [Example 40]
